Measurements: patent US20030229113A1, “Keratinocyte growth inhibitors and hydroxamic acid derivatives” (priority 2003, published 2003)
Read-outs that look alike come from different tables or passages of the source.

Key:
[1] = test system: solubilizing enzyme of HB-EGF; test: Inhibition of TPA-stimulated release of HB-EGF from HT-1080 transfectant expressing HB-EGF/alkaline phosphatase fusion protein; type: cell-based, human; conditions: HT-1080 HB-EGF-AP transfectant, TPA 60 nM for 60 min, AP activity in conditioned medium (OD405)
Procedure: Human fibrosarcoma HT-1080 stable transfectant expressing fusion protein of HB-EGF and human placental alkaline phosphatase (AP) were used for following experiments.
The cultured transfectant was treated with Trypsin-EDTA solution, and suspended in Minimum Essential Medium (without phenol red; supplemented with 10% heat-inactivated fetal calf serum; MEM) at the concentration of 1×10^5 cells/ml. Each 0.2 ml of the cell suspension was dispensed into individual wells of 96 well microplate, and incubated overnight in the CO2 incubator (37° C.). After the incubation, the conditioned medium was removed, and the wells were washed once with 0.2 ml of phosphate buffered saline. The cells were treated with 0.1 ml of compound solution [compound solutions in dimethylsulfoxide (DMSO) were diluted 100 times with MEM] for 30 min at 37° C. Then the compound solutions were removed, and cells were treated with 0.2 ml of TPA solution (120 μM) of stock solution was diluted to 60 nM with MEM) containing same concentration of the compound for 60 min at 37° C. The cells treated same procedure without compound were used as control.
After these treatments, each 0.1 ml of conditioned medium was transferred to individual wells of new 96 well microplate and incubated at 65° C. for 10 min to inactivate endogenous alkaline phosphatase. One hundred microliter of substrate solution (1 mg/ml of p-nitrophenyl phosphate in 0.01% magnesium chloride/1 M diethanolamine) for AP was added to each well and incubated for 120 min at room temperature in the dark. The OD405 of each well was measured with microplate reader. The IC50 values of the compounds were calculated from the concentration-inhibition curves.

[2] = test system: epidermal hyperplasia induced by TPA; test: TPA-induced epidermal hyperplasia on dorsal skin of mice; type: in vivo, male BALB/c mice; conditions: ED50; topical in acetone at 1 minute, 24 and 48 hours after TPA; epidermal thickness 72 hours after TPA
Procedure: After backs of male BALB/c mice were shaved, 20 micro 1 of TPA-acetone solution (50 μM) was applied to the dorsal skin surface in an area of ca. 1 cm^2. A volume of 20 micro 1 of test compound-acetone solution was applied to the same area a minute, 24 hours and 48 hours after TPA application (the treated group). In the non-treated group, acetone was applied instead of the test compound. In the control group, acetone was applied instead of TPA and the test compound. The mice were sacrificed, and the skin tissues treated with TPA or the test compound were excised 72 hours after TPA application. Then the tissues were fixed with 10% formalin and embedded in paraffin according to the conventional method. The vertical sections including the center of the TPA- or the test compound-treated area were prepared and they were stained by hematoxylin-eosin. The epidermal thickness was measured using an ocular microscope. The amount of the test compound required for achieving 50% inhibition against the mean epidermal thickness of the non-treated group (ED50) was calculated, wherein the mean epidermal thickness of the non-treated group was 100% and that of the control group was 0%.

SMILES | IC50 ([1]; read-out: IC50) | Amount of test compound required for 50% suppression of epidermal hyperplasia [2] | IC50 [1]
O=C(NO)C1Cc2nccnc2CN1S(=O)(=O)c1ccc(OC(F)(F)F)cc1 (single isomer, unassigned; (+)) [the compound(17), (+)-N-Hydroxy-6-(4-trifluoromethoxybenzenesulfonyl)-5,6,7,8-tetrahydropyrido[3,4-b]pyrazine-7-carboxamide] | 0.33 µM | 48 10^−6 g/cm^2 | –
CCOCCOc1ccc(S(=O)(=O)N2Cc3nccnc3CC2C(=O)NO)cc1 (single isomer, unassigned; (+)) [the compound(27), (+)-N-Hydroxy-6-[4-(2-ethoxyethoxy)benzenesulfonyl]-5,6,7,8-tetrahydropyrido[3,4-b]pyrazine-7-carboxamide] | 0.036 µM | 58 10^−6 g/cm^2 | –
CC(=O)OCCOc1ccc(S(=O)(=O)N2Cc3nccnc3CC2C(=O)NO)cc1 (single isomer, unassigned; (+)) [the compound(33), (+)-N-Hydroxy-6-[4-(2-acetoxyethoxy)benzenesulfonyl]-5,6,7,8-tetrahydropyrido[3,4-b]pyrazine-7-carboxamide] | 0.4 µM | – | –
O=C(NO)C1Cc2nccnc2CN1S(=O)(=O)c1ccc(OCCO)cc1 (single isomer, unassigned; (+)) [the compound(34), (+)-N-Hydroxy-6-[4-(2-hydroxyethoxy)benzenesulfonyl]-5,6,7,8-tetrahydropyrido[3,4-b]pyrazine-7-carboxamide] | 1.5 µM | – | –
CSc1ccc(S(=O)(=O)N2Cc3nccnc3CC2C(=O)NO)cc1 (single isomer, unassigned; (+)) [the compound(35), (+)-N-Hydroxy-6-(4-methylthiobenzenesulfonyl)-5,6,7,8-tetrahydropyrido[3,4-b]pyrazine-7-carboxamide] | 1.5 µM | – | –
O=C(NO)C1Cc2nccnc2CN1S(=O)(=O)c1ccccc1 (single isomer, unassigned; (+)) [the compound(36), (+)-N-Hydroxy-6-benzenesulfonyl-5,6,7,8-tetrahydropyrido[3,4-b]pyrazine-7-carboxamide] | 0.51 µM | 130 10^−6 g/cm^2 | –
O=C(NO)C1Cc2nccnc2CN1S(=O)(=O)c1ccc(F)cc1 (single isomer, unassigned; (+)) [the compound(37), (+)-N-Hydroxy-6-(4-fluorobenzenesulfonyl)-5,6,7,8-tetrahydropyrido[3,4-b]pyrazine-7-carboxamide] | 0.81 µM | 120 10^−6 g/cm^2 | –
CCCCCCc1ccc(S(=O)(=O)N2Cc3nccnc3CC2C(=O)NO)cc1 (single isomer, unassigned; (+)) [the compound(38), (+)-N-Hydroxy-6-(4-hexylbenzenesulfonyl)-5,6,7,8-tetrahydropyrido[3,4-b]pyrazine-7-carboxamide] | 1.7 µM | – | –
Nc1ccc(S(=O)(=O)N2Cc3nccnc3CC2C(=O)NO)cc1 (single isomer, unassigned; (+)) [the compound(39), (+)-N-Hydroxy-6-(4-aminobenzenesulfonyl)-5,6,7,8-tetrahydropyrido[3,4-b]pyrazine-7-carboxamide] | 1.8 µM | – | –
O=C(NO)C1Cc2nccnc2CN1S(=O)(=O)c1ccc(-c2ccccc2)cc1 (single isomer, unassigned; (+)) [the compound(40), (+)-N-Hydroxy-6-(biphenyl-4-sulfonyl)-5,6,7,8-tetrahydropyrido[3,4-b]pyrazine-7-carboxamide] | 1.5 µM | 20 10^−6 g/cm^2 | –
O=C(NO)C1Cc2nccnc2CN1S(=O)(=O)c1ccc(O)cc1 (single isomer, unassigned; (+)) [the compound(41), (+)-N-Hydroxy-6-(4-hydroxybenzenesulfonyl)-5,6,7,8-tetrahydropyrido[3,4-b]pyrazine-7-carboxamide] | 0.3 µM | – | –
CC(=O)c1ccc(S(=O)(=O)N2Cc3nccnc3CC2C(=O)NO)cc1 (single isomer, unassigned; (+)) [the compound(42), (+)-N-Hydroxy-6-(4-acetylbenzenesulfonyl)-5,6,7,8-tetrahydropyrido[3,4-b]pyrazine-7-carboxamide] | 2.2 µM | – | –
CCCc1ccc(S(=O)(=O)N2Cc3nccnc3CC2C(=O)NO)cc1 (single isomer, unassigned; (+)) [the compound(43), (+)-N-Hydroxy-6-(4-propylbenzenesulfonyl)-5,6,7,8-tetrahydropyrido[3,4-b]pyrazine-7-carboxamide] | 1.9 µM | – | –
C=Cc1ccc(S(=O)(=O)N2Cc3nccnc3CC2C(=O)NO)cc1 (single isomer, unassigned; (+)) [the compound(44), (+)-N-Hydroxy-6-(4-vinylbenzenesulfonyl)-5,6,7,8-tetrahydropyrido[3,4-b]pyrazine-7-carboxamide] | 1.1 µM | – | –
O=C(NO)C1Cc2nccnc2CN1S(=O)(=O)c1ccc(OCCCc2ccccc2)cc1 (single isomer, unassigned; (+)) [the compound(45), (+)-N-Hydroxy-6-[4-(3-phenylpropoxy)benzenesulfonyl]-5,6,7,8-tetrahydropyrido[3,4-b]pyrazine-7-carboxamide] | – | – | 0.63 µM
O=C(NO)C1Cc2nccnc2CN1S(=O)(=O)c1cccs1 (single isomer, unassigned; (+)) [the compound(46), (+)-N-Hydroxy-6-[(thiophen-2-yl)sulfonyl]-5,6,7,8-tetrahydropyrido[3,4-b]pyrazine-7-carboxamide] | – | 69 10^−6 g/cm^2 | 0.96 µM
O=C(NO)C1Cc2nccnc2CN1S(=O)(=O)/C=C/c1ccccc1 (single isomer, unassigned; (+)) [the compound(47), (+)-N-Hydroxy-6-(2-trans-phenylethenesulfonyl)-5,6,7,8-tetrahydropyrido[3,4-b]pyrazine-7-carboxamide] | 1.9 µM | – | –
CS(=O)(=O)CCCOc1ccc(S(=O)(=O)N2Cc3nccnc3CC2C(=O)NO)cc1 (single isomer, unassigned; (+)) [the compound(48), (+)-N-Hydroxy-6-[4-(3-methansulfonylpropoxy)benzenesulfonyl]-5,6,7,8-tetrahydropyrido[3,4-b]pyrazine-7-carboxamide] | 1.8 µM | – | –
CNC(=O)C(NC(=O)C(CC(C)C)C(C)C(=O)NO)c1ccccc1 [the compound a, [4-(N-hydroxyamino)-2 (R)-isobutyl-3-methylsuccinyl]-L-phenylglycine-N-methylamide, reference compound] | 0.43 µM | – | –
CNC(=O)C(Cc1cccc2c1CCCC2)NC(=O)C(CC(C)C)C(C)C(=O)NO [the compound b, [4-(N-hydroxyamino)-2 (R)-isobutyl-3-methylsuccinyl]-L-3-(5,6,7,8-tetrahydro-1-naphtyl)alanine-N-methylamide, reference compound] | 0.12 µM | – | –
CNC(=O)[C@@H](NC(=O)[C@H](CC(C)C)C(CN1CCc2ccccc2C1)C(=O)NO)c1ccccc1 (stereo partly drawn) [the compound c, [4-(N-hydroxyamino)-2 (R)-isobutyl-3-(1,2,3,4-tetrahydro-isoquinolylmethyl)succinyl]-L-phenylglycine —N-methylamide, reference compound] | 0.054 µM | 190 10^−6 g/cm^2 | –
CNC(=O)C(Cc1ccccc1)NC(=O)C(C(C)C)C(C)C(=O)NO [the compound e, 4-(N-hydroxyamino)-2 (R)-isopropyl-3-methylsuccinyl-L-phenylalanine-N-methylamide, reference compound] | 0.1 µM | – | –
CNC(=O)C(Cc1ccccc1)NC(=O)C(CC(C)C)C(C)C(=O)NO [the compound f, 4-(N-hydroxyamino)-2 (R)-isobutyl-3-methylsuccinyl-L-phenylalanine-N-methylamide, reference compound] | 0.1 µM | – | –
COc1ccc(S(=O)(=O)N2C(C)c3nccnc3C(C)C2C(=O)NO)cc1 (stereo not drawn) [the compound(49), 7,8-cis-N-Hydroxy-5,8-dimethyl-6-(4-methoxybenzenesulfonyl)-5,6,7,8-tetrahydropyrido[3,4-b]pyrazine-7-carboxamide] | 5.6 µM | – | –
